Key:
[1] = Aqueous solubility / BCS class; type: physicochemical
[2] = molecular target: Tie2 protein kinase (Homo sapiens, UniProt Q02763); settings: cited from earlier work
[3] = test system: p38 MAPK; settings: cited from earlier work
[4] = Pharmacokinetics, relative bioavailability and food effect in healthy subjects following single oral doses; type: in vivo, human; settings: by 48 hours after dosing
Source text: Formulations 1 and 2 as well as the control are summarized below.
This study design encompassed 3 parallel treatment cohorts of unique subjects evaluating the two formulations (12 subjects per cohort) and the PIC control (6 subjects) in a fasted or fed state, as shown in Table 12. A crossover food-effect assessment for the two formulations occurred with Groups 1 and 2 within Periods 1 and 2.
For each period, subjects were divided into 2 groups of equal size to evaluate any potential period effects on the food-effect assessment. Subjects fasted for a minimum of 8 hours the night before and 4 hours following dosing for the fasted assessment. Subjects consumed a slightly modified standard high-fat meal 30 minutes before and fasted for 4 hours after dosing for the fed portion of the food-effect assessment. Following a 7-day washout after the initial dose, subjects being dosed with the novel formulations returned to the clinic for the Period 2 single dose in the fasted state or following the consumption of a high-fat meal, as appropriate. Within each cohort and period, all subjects were treated on the same day. The same subjects were utilized for Cohort 1—Periods 1 and 2, and likewise for Cohort 2—Periods 1 and 2.
Both days were considered single dose for analysis purposes. Pharmacokinetic parameters calculated included the following: […]

Sequence of Tie2 protein kinase (Q02763 23-1124): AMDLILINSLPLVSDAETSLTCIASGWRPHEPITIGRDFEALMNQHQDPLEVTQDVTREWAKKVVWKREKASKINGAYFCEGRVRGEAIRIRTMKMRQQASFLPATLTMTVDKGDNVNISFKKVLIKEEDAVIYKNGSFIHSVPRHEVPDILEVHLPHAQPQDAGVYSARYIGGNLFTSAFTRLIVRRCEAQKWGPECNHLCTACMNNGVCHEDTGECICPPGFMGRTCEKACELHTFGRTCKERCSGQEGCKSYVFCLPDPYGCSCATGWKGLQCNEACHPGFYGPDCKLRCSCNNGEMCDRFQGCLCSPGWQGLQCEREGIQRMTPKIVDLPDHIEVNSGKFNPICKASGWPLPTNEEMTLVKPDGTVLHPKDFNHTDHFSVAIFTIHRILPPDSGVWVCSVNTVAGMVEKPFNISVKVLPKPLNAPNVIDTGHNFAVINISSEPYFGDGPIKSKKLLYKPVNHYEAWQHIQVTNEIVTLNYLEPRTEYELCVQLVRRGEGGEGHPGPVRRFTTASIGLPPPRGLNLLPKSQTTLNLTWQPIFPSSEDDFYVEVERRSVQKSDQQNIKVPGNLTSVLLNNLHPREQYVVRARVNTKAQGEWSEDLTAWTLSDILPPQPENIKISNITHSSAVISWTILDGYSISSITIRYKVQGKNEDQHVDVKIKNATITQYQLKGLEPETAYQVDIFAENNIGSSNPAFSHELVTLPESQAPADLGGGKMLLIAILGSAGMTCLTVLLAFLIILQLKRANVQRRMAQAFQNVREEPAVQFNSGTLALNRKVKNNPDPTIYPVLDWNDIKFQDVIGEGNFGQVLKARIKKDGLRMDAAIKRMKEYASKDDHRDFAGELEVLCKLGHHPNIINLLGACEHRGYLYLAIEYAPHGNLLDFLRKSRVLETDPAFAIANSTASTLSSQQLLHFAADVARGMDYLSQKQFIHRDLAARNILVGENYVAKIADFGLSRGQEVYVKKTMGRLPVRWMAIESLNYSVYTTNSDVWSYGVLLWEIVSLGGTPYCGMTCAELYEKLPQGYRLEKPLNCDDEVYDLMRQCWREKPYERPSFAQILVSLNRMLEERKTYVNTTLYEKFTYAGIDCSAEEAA

BCS class [1]: Class II
solubility ([1]; aqueous media, aqueous buffer, across the typical physiological pH range of 2-8): < 10 µg/mL
mean plasma concentrations relative to the mean peak plasma concentrations [4]: less than 10%
Structure (SMILES): Cc1ccc(-n2nc(C(C)(C)C)cc2NC(=O)NCc2cc(F)ccc2Oc2ccc3c(cnn3CCO)c2)cc1 [ARRY-614, 1-(3-Tert-butyl-1-p-tolyl-1H-pyrazol-5-yl)-3-(5-fluoro-2-(1-(2-hydroxyethyl)-1H-indazol-5-yloxy)benzyl)urea]
inhibitory activity against Tie2 protein kinase [2]: potent inhibitory activity
inhibitory activity against p38 MAPK [3]: potent inhibitory activity
